# Target: T1, CBL-B (Homo sapiens, UniProt Q13191)
# T1 construct: GST
# Assay: CBL-B TR-FRET IC50 screening (E1/E2 ubiquitination, Biotin-Ubiquitin, Anti GST-Tb donor / Streptavidin-d2 acceptor)
# Assay type: biochemical
# Conditions: CBL-B 10 nM final; 11-point titration from 100 uM; binned A-F; read-out: CBL-B TR-FRET activity IC50
# T1 sequence (Q13191 whole entry): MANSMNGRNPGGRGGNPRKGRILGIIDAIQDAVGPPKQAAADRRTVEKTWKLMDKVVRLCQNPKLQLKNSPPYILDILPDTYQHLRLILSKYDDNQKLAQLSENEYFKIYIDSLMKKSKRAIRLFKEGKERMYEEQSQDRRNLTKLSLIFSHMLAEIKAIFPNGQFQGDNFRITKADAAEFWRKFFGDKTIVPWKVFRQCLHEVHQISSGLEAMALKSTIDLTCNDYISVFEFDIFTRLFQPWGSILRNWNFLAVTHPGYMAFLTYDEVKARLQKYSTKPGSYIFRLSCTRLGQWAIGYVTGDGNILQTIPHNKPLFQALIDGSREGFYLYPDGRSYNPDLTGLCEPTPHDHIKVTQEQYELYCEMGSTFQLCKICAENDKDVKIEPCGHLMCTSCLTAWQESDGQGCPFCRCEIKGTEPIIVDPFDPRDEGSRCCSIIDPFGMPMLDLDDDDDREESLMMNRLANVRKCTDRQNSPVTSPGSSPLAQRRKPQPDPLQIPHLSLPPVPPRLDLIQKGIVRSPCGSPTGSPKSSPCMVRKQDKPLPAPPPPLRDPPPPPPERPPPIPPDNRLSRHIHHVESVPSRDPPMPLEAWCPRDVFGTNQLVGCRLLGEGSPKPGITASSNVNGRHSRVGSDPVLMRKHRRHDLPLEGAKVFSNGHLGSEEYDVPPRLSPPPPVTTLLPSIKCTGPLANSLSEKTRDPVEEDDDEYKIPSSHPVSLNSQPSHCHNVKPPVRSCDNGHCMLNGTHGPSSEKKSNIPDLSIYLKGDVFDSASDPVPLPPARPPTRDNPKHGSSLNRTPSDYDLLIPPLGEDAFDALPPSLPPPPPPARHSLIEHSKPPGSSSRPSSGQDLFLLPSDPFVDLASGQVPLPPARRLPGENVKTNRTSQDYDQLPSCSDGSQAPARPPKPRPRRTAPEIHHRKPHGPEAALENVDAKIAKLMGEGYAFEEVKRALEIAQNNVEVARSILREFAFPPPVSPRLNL
row,SMILES,IC50
1,C[C@@H]1CN(Cc2cc(C(F)(F)F)c3cn(-c4cccc(C5(c6nncn6C)CC(F)(F)C5)c4)c(=O)n3c2)CCO1 [Compound 279],301 to 1000 nM
2,Cn1cnnc1CC1(c2cccc(-n3cc4c(C(F)(F)F)cc(CNCC5CCCO5)cn4c3=O)c2)COC1 (stereo not shown) [Compound 253],< 100 nM
3,Cn1cnnc1[C@@H](c1cccc(-n2cc3c(C(F)(F)F)cc(CN4CC5(CSC5)C4)cn3c2=O)c1)C1CCC1 [Compound 276],< 100 nM
4,CN(C)C1CC=C(c2cc(C(F)(F)F)c3cn(-c4cccc(C5(Cc6nncn6C)COC5)c4)c(=O)n3c2)CC1 (stereo not shown) [Compound 79],< 100 nM
5,"C[C@H]1CCCN(Cc2cc(C(F)(F)F)c3cn(-c4cccc([C@@H](c5nncn5C)N5CCC5)c4)c(=O)n3c2)C1 (single isomer, unassigned) [Compound 368]",< 100 nM
6,"C[C@H]1CCCN(Cc2cc(C(F)(F)F)c3cn(-c4cc(C#N)cc([C@H](c5nncn5C)C5CCC5)c4)c(=O)n3c2)C1 (single isomer, unassigned) [Compound 289]",> 10000 nM
7,CNC(=O)c1cc(C(F)(F)F)c2cn(-c3cccc(C4(Cc5nncn5C)COC4)c3)c(=O)n2c1 [Compound 30],1000 to 3000 nM
8,C=Cc1cc(C(F)(F)F)c2cn(-c3cccc(C4(Cc5nncn5C)COC4)c3)c(=O)n2c1 [Compound 8],100 to 300 nM
9,Cn1cnnc1C1(c2cccc(-n3cc4c(C(F)(F)F)cc(CN5CCC6(CC6)C5)cn4c3=O)c2)CC2(CC2)C1 [Compound 115],< 100 nM
10,"Cn1cnnc1[C@]1(c2cccc(-n3cc4c(C(F)(F)F)cc(CN5CCC6(CC6)C5)cn4c3=O)c2)C[C@H](C)C1 (single isomer, unassigned) [Compound 222]",< 100 nM
11,C[C@H]1CCCN(Cc2cc(C(F)(F)F)c3cn(-c4cccc(Cc5nncn5C)c4)c(=O)n3c2)C1 [Compound 294],1000 to 3000 nM
12,Cn1cnnc1CC1(c2cccc(-n3cc4c(C(F)(F)F)cc(CN5CCCC[C@@H](O)C5)cn4c3=O)c2)COC1 [Compound 167],< 100 nM
13,C[C@H](Cc1nncn1C)c1cccc(-n2cc3c(C(F)(F)F)cccn3c2=O)c1 [Compound 2],301 to 1000 nM
14,Cn1cnnc1CC1(c2cccc(-n3cc4c(C(F)(F)F)cc(CN5CCCC[C@H](O)C5)cn4c3=O)c2)COC1 [Compound 166],< 100 nM
15,Cn1cnnc1CC1(c2cccc(-n3cc4c(C(F)(F)F)cc(C(C)(C)O)cn4c3=O)c2)COC1 [Compound 101],1000 to 3000 nM
16,CN(C)C1CCC(c2cc(C(F)(F)F)c3cn(-c4cccc(C5(Cc6nncn6C)COC5)c4)c(=O)n3c2)CC1 (stereo not shown) [Compound 87],100 to 300 nM
17,"COC1(C[C@H](c2cccc(-n3cc4c(C(F)(F)F)cc(CN5CCC[C@H](C)C5)cn4c3=O)c2)c2nncn2C)CC1 (single isomer, unassigned) [Compound 366]",> 10000 nM
18,"C[C@H]1CCCN(C(c2cc(C(F)(F)F)c3cn(-c4cccc(C5(Cc6nncn6C)COC5)c4)c(=O)n3c2)C(F)(F)F)C1 (single isomer, unassigned) [Compound 195]",100 to 300 nM
19,C[C@H]1CCCN(Cc2cc(C(F)(F)F)c3cn(-c4cccc([C@@H](CC5CCC5)c5nncn5C)c4)c(=O)n3c2)C1 [Compound 352_P2],100 to 300 nM
20,"Cn1cnnc1[C@]1(c2cccc(-n3cc4c(C(F)(F)F)cc(CN5CCC(C)(F)CC5)cn4c3=O)c2)C[C@H](C)C1 (single isomer, unassigned) [Compound 227]",< 100 nM
21,CC(=O)N1C2CCC1CN(Cc1cc(C(F)(F)F)c3cn(-c4cccc([C@H](c5nncn5C)C5CCC5)c4)c(=O)n3c1)C2 [Compound 349],< 100 nM

row,SMILES,IC50
1,CN(Cc1cc(C(F)(F)F)c2cn(-c3cccc([C@H](c4nncn4C)C4CCC4)c3)c(=O)n2c1)C1COC1 [Compound 323],< 100 nM
2,CC(=O)N1CC2CCC(C1)N2Cc1cc(C(F)(F)F)c2cn(-c3cccc([C@H](c4nncn4C)C4CCC4)c3)c(=O)n2c1 [Compound 348],100 to 300 nM
3,CN(C)C(=O)C1CN(Cc2cc(C(F)(F)F)c3cn(-c4cccc([C@H](c5nncn5C)C5CCC5)c4)c(=O)n3c2)C1 [Compound 325],< 100 nM
4,CN1CC2CCC(C1)N2c1cc(C(F)(F)F)c2cn(-c3cccc(C4(Cc5nncn5C)COC4)c3)c(=O)n2c1 [Compound 15],100 to 300 nM
5,CC(=O)N1CCN(Cc2cc(C(F)(F)F)c3cn(-c4cccc([C@@H](c5nncn5C)C5CCC5)c4)c(=O)n3c2)CC1 [Compound 339_P1],< 100 nM
6,Cn1cnnc1CC1(c2cccc(-n3cc4c(C(F)(F)F)cc(CN5CCOC(C)(C)C5)cn4c3=O)c2)COC1 [Compound 153],< 100 nM
7,COC[C@@H]1CCCN1Cc1cc(C(F)(F)F)c2cn(-c3cccc([C@H](c4nncn4C)C4CCC4)c3)c(=O)n2c1 [Compound 382_P2],1000 to 3000 nM
8,"C[C@H]1CCCN(Cc2cc(C(F)(F)F)c3cn(-c4cc(F)cc([C@H](c5nncn5C)C5CCC5)c4)c(=O)n3c2)C1 (single isomer, unassigned) [Compound 243]",< 100 nM
9,C[C@@H](c1cc(C(F)(F)F)c2cn(-c3cccc(C4([C@H](F)c5nncn5C)COC4)c3)c(=O)n2c1)N1CCC2(CC2)C1 [Compound 54],100 to 300 nM
10,COc1cc(-n2cc3c(C(F)(F)F)cc(CN4CCC5(CC5)C4)cn3c2=O)cc(C2(Cc3nncn3C)COC2)c1 [Compound 108],< 100 nM
11,O=c1n(-c2cccc([C@H](c3nncs3)C3CCC3)c2)cc2c(C(F)(F)F)cc(CN3CCC4(CC4)C3)cn12 [Compound 328],1000 to 3000 nM
12,Cn1cnnc1[C@]1(c2cccc(-n3cc4c(C(F)(F)F)cc(C#N)cn4c3=O)c2)C[C@H](C)C1 [Compound 212],100 to 300 nM
13,C[C@H]1CCCN(Cc2cc(C(F)(F)F)c3cn(-c4cccc(N(C)Cc5nncn5C)c4)c(=O)n3c2)C1 [Compound 155],3000 to 10000 nM
14,Cn1cnnc1C(c1cccc(-n2cc3c(C(F)(F)F)cc(Br)cn3c2=O)c1)C1COC1 (stereo not shown) [Compound 127],301 to 1000 nM
15,CN(C)C(=O)C1CCN(Cc2cc(C(F)(F)F)c3cn(-c4cccc([C@H](c5nncn5C)C5CCC5)c4)c(=O)n3c2)CC1 [Compound 377],< 100 nM
16,"CC1CN(Cc2cc(C(F)(F)F)c3cn(-c4cccc([C@H](c5nncn5C)C5CCC5)c4)c(=O)n3c2)CCC1(F)F (single isomer, unassigned) [Compound 172]",< 100 nM
17,Cn1cnnc1[C@@H](c1cccc(-n2cc3c(C(F)(F)F)cc(CN4CC5(CCCC5)C4)cn3c2=O)c1)C1CCC1 [Compound 295],< 100 nM
18,"Cn1cnnc1[C@@H](c1cccc(-n2cc3c(C(F)(F)F)cc(CN4CC[C@H](F)C4)cn3c2=O)c1)C1CCC1 (single isomer, unassigned) [Compound 159]",< 100 nM
19,Cc1conc1CC1(c2cccc(-n3cc4c(C(F)(F)F)cc(CN5CCC[C@H](C)C5)cn4c3=O)c2)COC1 [Compound 185],100 to 300 nM
20,Cn1cnnc1C1(c2cccc(-n3cc4c(C(F)(F)F)cc(CN5CCC(F)CC5)cn4c3=O)c2)CC2(CC2)C1 [Compound 112],< 100 nM
21,COCCOCc1cc(C(F)(F)F)c2cn(-c3cccc(C4(Cc5nncn5C)COC4)c3)c(=O)n2c1 [Compound 77],< 100 nM

# Same assay, conditions: second part of Table 2 (head 'Patent Cmpd No / Updated Activity'); same CBL-B TR-FRET IC50 bins A-F; read-out: Updated Activity
row,SMILES,IC50
1,"Cn1cnnc1[C@@H](c1cc(-c2cnsc2)cc(-n2cc3c(C(F)(F)F)cccn3c2=O)c1)C1CCC1 (single isomer, unassigned) [Compound 457]",> 10000 nM
2,"CC(=O)N(C)Cc1cc([C@H](c2nncn2C)C2CCC2)cc(-n2cc3c(C(F)(F)F)cccn3c2=O)c1 (single isomer, unassigned) [Compound 513]",> 10000 nM
3,"CO[C@H]1C[C@@](c2cccc(-n3cc4c(C(F)(F)F)cc([C@@H](C)N5CCC(F)CC5)cn4c3=O)c2)(c2nncn2C)C1 (single isomer, unassigned) [Compound 602]",301 to 1000 nM
4,C[C@H]1CCC[N+]([O-])(Cc2cc(C(F)(F)F)c3cn(-c4cccc([C@H](c5nncn5C)C5CCC5)c4)c(=O)n3c2)C1 (stereo partly shown) [Compound 563],< 100 nM
5,"CN1CC[C@@]2(CCN(Cc3cc(C(F)(F)F)c4cn(-c5cccc([C@H](c6nncn6C)C6CCC6)c5)c(=O)n4c3)C2)C1=O (single isomer, unassigned) [Compound 623]",< 100 nM
6,"C[C@H]1CCCN(Cc2cc(C(F)(F)F)c3cn(-c4cccc([C@@H](c5nncn5C)[C@H]5C[C@H](O)C5)c4)c(=O)n3c2)C1 (single isomer, unassigned) [Compound 438]",< 100 nM
7,"Cn1cnnc1[C@H](c1cc(C#N)cc(-n2cc3c(C(F)(F)F)cc(CN4CCC5(CC5)C4)cn3c2=O)c1)C1CCC1 (single isomer, unassigned) [Compound 497]",< 100 nM
8,"C[C@H]1CCCN(Cc2cc(C(F)(F)F)c3cn(-c4cc(F)cc([C@@H](c5nncn5C)C5COC5)c4)c(=O)n3c2)C1 (single isomer, unassigned) [Compound 477]",< 100 nM
9,Cn1cnnc1[C@@H](c1cccc(-n2cc3c(C(F)(F)F)cc(CN4CCC(F)CC4)cn3c2=O)c1)C1COC1 [Compound 414],< 100 nM
10,CN(Cc1cc(C(F)(F)F)c2cn(-c3cccc([C@H](c4nncn4C)C4CCC4)c3)c(=O)n2c1)S(C)(=O)=O [Compound 520],< 100 nM
11,Cn1cnnc1[C@@H](c1cc(-n2cc3c(C(F)(F)F)cccn3c2=O)cs1)C1CCC1 [Compound 403_P1],> 10000 nM
12,[2H]C([2H])(c1cc(C(F)(F)F)c2cn(-c3cccc([C@@H](c4nncn4C)C4COC4)c3)c(=O)n2c1)N1CCC[C@H](C)C1 [Compound 565_P1],> 10000 nM
13,C[C@H]1CCCN(Cc2cc(C(F)(F)F)c3cn(-c4cccc([C@@H](c5nncn5C)C5CC5)c4)c(=O)n3c2)C1 [Compound 472_P1],100 to 300 nM
14,"C[C@H]1CCCN(Cc2cc(C(F)(F)F)c3cn(-c4cc(C#N)cc([C@H](c5nncn5C)C5COC5)c4)c(=O)n3c2)C1 (single isomer, unassigned) [Compound 555]",> 10000 nM
15,"COCCO[C@@H]1CCCN(Cc2cc(C(F)(F)F)c3cn(-c4cccc([C@H](c5nncn5C)C5CCC5)c4)c(=O)n3c2)C1 (single isomer, unassigned) [Compound 519]",< 100 nM
16,C[C@H]1CCCN(Cc2cc(C(F)(F)F)c3cn(-c4cccc([C@H](c5n[nH]cc5C#N)C5CCC5)c4)c(=O)n3c2)C1 [Compound 567],< 100 nM

# From patent US20240228482A1, “COMPOUNDS, COMPOSITIONS AND METHODS OF TREATING CANCER” (HOTSPOT THERAPEUTICS, INC., priority 2021, published 2024)
